Where “and” joins values, the source holds several entries; their conditions need not be identical. Identical values can stand only once.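 Dose response: 5 concentrations. Exposure: 48 h. Format: 96-well plates. Endpoint: linear interpolation; highest concentration if not reached. Here, GI50 denotes the concentration required for 50% inhibition of growth. TGI denotes the concentration required for complete inhibition of growth.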
Legend:
Test in all cases: inhibition of tumour cell growth, NCI panel, 48 h
A498 renal = tested on: A498 renal
A549 NSCLC = tested on: A549 NSCLC
EKVX NSCLC = tested on: EKVX NSCLC
HCT-15 colon = tested on: HCT-15 colon
HOP-62 NSCLC = tested on: HOP-62 NSCLC
IGROV1 ovarian = tested on: IGROV1 ovarian
M14 melanoma = tested on: M14 melanoma
MOLT-4 leukemia = tested on: MOLT-4 leukemia
SN12C renal = tested on: SN12C renal
U251 CNS = tested on: U251 CNS

Structure (SMILES)	TGI (A498 renal)	TGI (A549 NSCLC)	TGI (EKVX NSCLC)	TGI (HCT-15 colon)	TGI (HOP-62 NSCLC)	TGI (IGROV1 ovarian)	TGI (M14 melanoma)	TGI (MOLT-4 leukemia)	TGI (SN12C renal)	TGI (U251 CNS)	GI50 (A498 renal)	GI50 (A549 NSCLC)	GI50 (EKVX NSCLC)	GI50 (HCT-15 colon)	GI50 (HOP-62 NSCLC)	GI50 (IGROV1 ovarian)	GI50 (M14 melanoma)	GI50 (MOLT-4 leukemia)	GI50 (SN12C renal)	GI50 (U251 CNS)
OCc1c[te]c(-c2ccccc2)c1	> 100 µM	> 100 µM	> 100 µM	> 100 µM	> 100 µM	> 100 µM	> 100 µM	> 100 µM	78.7 µM	> 100 µM										
CCN(CC)C1CCC(Nc2c(C(C)=O)cnc3ccc(-c4ccc(O)c(Cl)c4)cc23)CC1 (centres undefined)	6.84 µM	5.52 µM	> 47.2 µM	9.62 µM	> 45.5 µM	5.47 µM	15.4 µM	1.18 µM	> 60 µM	17 µM	2.19 µM	0.58 µM	1.82 µM	0.301 µM	2.14 µM	0.253 µM	0.468 µM	0.253 µM	0.45 µM	1.16 µM
Cc1ccc(NC(=O)/C(Cl)=C(/Cl)C(=O)O)cc1	> 100 µM	> 100 µM	31.2 µM	28.9 µM	> 100 µM	61.1 µM	28.7 µM	43.5 µM	32.5 µM	30.9 µM										
O=C1c2cccc(NCCN=Cc3ccccc3O)c2C(=O)c2c(NCCN=Cc3ccccc3O)cccc21	2.6 µM	14.3 µM	8.39 µM	12 µM	3.89 µM	0.504 µM	5.63 µM	1.56 µM	2.05 µM	4.62 µM	1.11 µM	0.668 µM	1.87 µM	2.23 µM	0.663 µM	0.237 µM	1.88 µM	0.353 µM	0.269 µM	0.521 µM
CCCCCCCCn1ccc2cc(NC(=O)Cn3cc(CN4CCCCC4)nn3)ccc21	19.5 µM	4.57 µM	13.9 µM	4.11 µM	3.75 µM	3.97 µM	3.43 µM	7.23 µM	3.75 µM	3.34 µM	5.05 µM	1.99 µM	2.89 µM	1.96 µM	1.89 µM	1.88 µM	1.78 µM	2.59 µM	1.8 µM	1.78 µM
NCCNCc1c2ccccc2c(CNCCN)c2ccccc12	75.3 µM	38.7 µM	50.1 µM	> 100 µM	69.3 µM	> 100 µM	35.2 µM	30.9 µM	58.9 µM	97.7 µM										
O=c1ssc(Cl)c1Cl	> 10 µM	> 10 µM	> 10 µM	> 10 µM	> 10 µM	> 10 µM	> 10 µM	4.9 µM	> 10 µM	> 10 µM										
OCCN1CCN2C=C(C3CCCC4N(CCO)CCN34)CCC21 (centres undefined)	> 100 µM	> 100 µM	> 100 µM	> 100 µM	> 100 µM	> 100 µM	> 100 µM	53.6 µM	> 100 µM	> 100 µM										
CC(C)(C)c1c2c(c(C(C)(C)C)c3c1OCN(Cc1ccccc1)C3)OCN(Cc1ccccc1)C2	20.6 µM	39.8 µM	41.5 µM	33.3 µM	53.5 µM	45.1 µM	29 µM	50.4 µM	34.9 µM	29.6 µM										
O=C1c2ccccc2-c2c1c1ccccc1c(=O)n2CCCNCCCCNCCCN1C(=O)c2ccccc2C2C(=O)c3ccccc3C21 (centres undefined)	2.21 µM	0.881 µM	1.05 µM	0.853 µM	1.08 µM	10.7 µM	1.53 µM	0.711 µM	0.818 µM	0.767 µM	0.628 µM	0.0451 µM	0.358 µM	0.229 µM	0.273 µM	0.988 µM	0.643 µM	< 0.005 µM	< 0.005 µM	0.0756 µM
O=C(O)c1ccc(C(=O)O)c(C(=O)Nc2ccc3c(c2)C(=O)c2ccccc2-3)c1	> 100 µM	> 100 µM	> 100 µM	> 100 µM	> 100 µM	> 100 µM	> 100 µM	> 100 µM	> 100 µM	> 100 µM										
CC(=O)c1cc(C(=O)c2ccc3c(c2)Sc2ccccc2N3)c2cc(C)ccn12	> 100 µM	> 100 µM	> 100 µM	> 100 µM	> 100 µM	> 100 µM	> 100 µM	> 100 µM	> 100 µM	> 100 µM	0.0431 µM	0.0648 µM	0.0873 µM	0.0704 µM	0.146 µM	0.122 µM	0.0593 µM	0.329 µM	0.479 µM	0.138 µM
COc1ccc(C2C(C)C(=O)C(C)C(c3ccc(OC)cc3)N2N=O)cc1 (centres undefined)	> 40.9 µM and 424 µM	750 µM and > 1000 µM	> 1000 µM	> 1000 µM	> 80 µM and 60.7 µM and 293 µM	391 µM and 656 µM	750 µM and > 732 µM	> 1000 µM	> 1000 µM	750 µM and 428 µM		409 µM		> 750 µM	24.8 µM and 23.9 µM	> 90.8 µM and 138 µM			> 750 µM	35 µM and 85.9 µM
CC1(C)[C@@H](OC(=O)CCC(=O)O)CC[C@]2(C)[C@H]3C(=O)C=C4[C@@H]5C[C@@](C)(C(=O)O)CC[C@]5(C)CC[C@@]4(C)[C@]3(C)CC[C@@H]12	68 µM	130 µM	84.8 µM	78.7 µM	79.5 µM	100 µM	129 µM		105 µM	77.4 µM	49.2 µM	61 µM	52.9 µM	51.1 µM	53.9 µM	55.8 µM	58.4 µM		51.9 µM	53.2 µM
Cc1cc(C)nc(NS(=O)(=O)c2ccc(Nc3c4ccc(Cl)cc4nc4c(C(=O)NCCN(C)C)cccc34)cc2)n1	> 100 µM	> 100 µM	> 100 µM	> 100 µM	> 100 µM	> 100 µM	> 100 µM	> 100 µM	> 100 µM	> 100 µM										
O=C(Nc1ccccc1)c1cc(S(=O)(=O)Nc2nc3ccccc3o2)c(SCc2ccccc2)cc1Cl	34.6 µM	53.8 µM	31.3 µM	34 µM	42.5 µM	36.7 µM	38.6 µM	37.8 µM	46.2 µM	35 µM	15.2 µM	21 µM	15.3 µM	17 µM	20.2 µM	17.9 µM	20.6 µM	13.3 µM	20.3 µM	17.8 µM

From PubChem BioAssay (NCI)
